Measured values as given in patent US6583147B1, “Pyrazolopyrimidinone derivatives for the treatment of impotence” (Dong A Pharm Co., Ltd., priority 1998, dated 2003).

Legend:
[1] = biological target: T1, Phosphodiesterase-5 enzyme (PDE 5) (Homo sapiens, UniProt O76074); test: Test for phosphodiesterase-5 (PDE 5) activity; assay type: biochemical; details: PDE 5 fraction from human corpus cavernosal tissues
T1 construct: separated by HPLC (Mono Q anion exchange column) with concentration gradient of 0-500 mM NaCl to elute PDE isozymes; from tissue; host or cells: human corpus cavernosal tissue

rats = test: Penile erection test using rats; assay type: in vivo, rat; details: oral single dose 10 mg/kg in 0.5% methyl cellulose, observed for 2 hours
[2] = Acute oral toxicity test in rats; details: SD, rat, in vivo, 1 g/kg; rats, oral single dose; read-out: lethal dose (LD50) of oral administration

SMILES | IC50 [1] [nM] | PEI (penile erection index) (rats) | genital grooming (number of genital groomings) (rats) | LD50 [2] [mg/kg]
CCCc1nn(C)c2c(=O)[nH]c(-c3cc(S(=O)(=O)NCCC4CCCN4C)ccc3OCC)nc12 (centres unmarked) [Example 67] | 63 | 75.0 ± 61.2 | 1.8 ± 1.5 | –
CCOc1ccc(S(=O)(=O)NC2CCCCC2)cc1-c1nc2c(CC(C)C)nn(C)c2c(=O)[nH]1 [Example 20] | – | 266.7 ± 57.7 | 2.3 ± 0.6 | –
CCCc1nn(CC)c2c(=O)[nH]c(-c3cc(S(=O)(=O)Nc4cccnc4)ccc3OCC)nc12 [Example 40, 5-[2-ethoxy-5-(3-pyridylamidosulfonyl)phenyl]-1-ethyl-3-propyl-1,6-dihydro-7H-pyrazolo(4,3-d)pyrimidin-7-one] | 8.7 | 177.8 ± 203.7 | 1.7 ± 1.5 | > 1000
CCCc1nn(C)c2c(=O)[nH]c(-c3cc(S(=O)(=O)Nc4cc(C)cc(C)c4)ccc3OCC)nc12 [Example 32] | – | 66.7 ± 66.7 | 1.3 ± 1.5 | –
CCCc1nn(C)c2c(=O)[nH]c(-c3cc(S(=O)(=O)NC4CCCC4)ccc3OCC)nc12 [Example 18] | – | 44.4 ± 38.5 | 1.3 ± 0.6 | –
CCCc1nn(C)c2c(=O)[nH]c(-c3cc(S(=O)(=O)NC(CC)CC)ccc3OCC)nc12 [Example 11] | – | 100 ± 0.0 | 2.7 ± 2.1 | –
CCCc1nn(C)c2c(=O)[nH]c(-c3cc(S(=O)(=O)Nc4ccccn4)ccc3OCC)nc12 [Example 42] | – | 33.3 ± 57.7 | 1.3 ± 1.5 | –
CCCc1nn(C)c2c(=O)[nH]c(-c3cc(S(=O)(=O)NC(C)(C)C)ccc3OCC)nc12 [Example 12] | – | 22.2 ± 38.5 | 0.3 ± 0.6 | –
CCCc1nn(CC)c2c(=O)[nH]c(-c3cc(S(=O)(=O)NCc4ccncc4)ccc3OCC)nc12 [Example 45] | – | 22.2 ± 38.5 | 0.7 ± 1.2 | –
CCCOc1ccc(S(=O)(=O)NC2CC2)cc1-c1nc2c(CCC)nn(C)c2c(=O)[nH]1 [Example 16] | – | 100 ± 0 | 1.7 ± 0.6 | –
CCCOc1ccc(S(=O)(=O)NCc2ccccc2)cc1-c1nc2c(CCC)nn(C)c2c(=O)[nH]1 [Example 23, 5-[2-propyloxy-5-(benzylamidosulfonyl)phenyl]-1-methyl-3-propyl-1,6-dihydro-7H-pyrazolo(4,3-d)pyrimidin-7-one] | 12.7 | 266.7 ± 57.7 | 3.0 ± 1.0 | > 1000
CCCc1nn(C)c2c(=O)[nH]c(-c3cc(S(=O)(=O)NC4CCCCC4)ccc3OCC)nc12 [Example 19, 5-[2-ethoxy-5-(cyclohexylamidosulfonyl)phenyl]-1-methyl-3-propyl-1,6-dihydro-7H-pyrazolo(4,3-d)pyrimidin-7-one] | 4.98 | 233.3 ± 57.7 | 5.0 ± 0.0 | > 1000
CCCc1nn(CC)c2c(=O)[nH]c(-c3cc(S(=O)(=O)NCC4CCN(C)C4)ccc3OCC)nc12 (centres unmarked) [Example 61] | 93.9 | 25.0 ± 28.9 | 0.8 ± 0.5 | –
CCCc1nn(C)c2c(=O)[nH]c(-c3cc(S(=O)(=O)NCc4ccncc4)ccc3OCC)nc12 [Example 43] | – | 11.1 ± 19.3 | 0.7 ± 0.6 | –
CCCc1nn(C)c2c(=O)[nH]c(-c3cc(S(=O)(=O)NC(C)CC)ccc3OCC)nc12 (centres unmarked) [Example 10, 5-[2-ethoxy-5-(2-butylamidosulfonyl)phenyl]-1-methyl-3-propyl-1,6-dihydro-7H-pyrazolo(4,3-d)pyrimidin-7-one] | 3.78 | 466.7 ± 305.5 | 4.0 ± 1.7 | > 1000
CCOc1ccc(S(=O)(=O)NC2CC2)cc1-c1nc2c(CC(C)C)nn(C)c2c(=O)[nH]1 [Example 15] | – | 111.1 ± 101.8 | 0.7 ± 0.6 | –
CCCc1nn(C)c2c(=O)[nH]c(-c3cc(S(=O)(=O)Nc4ccc(C(C)C)cc4)ccc3OCC)nc12 [Example 31, 5-[2-ethoxy-5-(4-isopropylphenylamidosulfonyl)phenyl]-1-methyl-3-propyl-1,6-dihydro-7H-pyrazolo(4,3-d)pyrimidin-7-one] | 30.6 | 300.0 ± 0 | 3.3 ± 0.6 | > 1000
CCCNS(=O)(=O)c1ccc(OCC)c(-c2nc3c(CCC)nn(CC)c3c(=O)[nH]2)c1 [Example 8, 5-[2-ethoxy-5-(propylamidosulfonyl)phenyl]-1-ethyl-3-propyl-1,6-dihydro-7H-pyrazolo(4,3-d)pyrimidin-7-one] | 25.3 | 200.0 ± 100.0 | 3.0 ± 1.0 | > 1000
CCCc1nn(C)c2c(=O)[nH]c(-c3cc(S(=O)(=O)NC(C)C)ccc3OCC)nc12 [Example 1, 5-[2-ethoxy-5-(isopropylamidosulfonyl)phenyl]-1-methyl-3-propyl-1,6-dihydro-7H-pyrazolo(4,3-d)pyrimidin-7-one] | 8.63 | 366.7 ± 38.5 | 3.0 ± 1.0 | > 1000
CCCNS(=O)(=O)c1ccc(OCC)c(-c2nc3c(CCC)nn(C)c3c(=O)[nH]2)c1 [Example 7, 5-[2-ethoxy-5-(propylamidosulfonyl)phenyl]-1-methyl-3-propyl-1,6-dihydro-7H-pyrazolo(4,3-d)pyrimidin-7-one] | 20.7 | 200.0 ± 0.0 | 6.7 ± 3.8 | > 1000
CCCc1nn(C)c2c(=O)[nH]c(-c3cc(S(=O)(=O)NCC4CCCO4)ccc3OCC)nc12 (centres unmarked) [Example 21] | – | 44.4 ± 38.5 | 2.3 ± 1.5 | –
CCCc1nn(C)c2c(=O)[nH]c(-c3cc(S(=O)(=O)Nc4ccc(C(C)(C)C)cc4)ccc3OCC)nc12 [Example 28, 5-[2-ethoxy-5-(4-t-butylphenylamidosulfonyl)phenyl]-1-methyl-3-propyl-1,6-dihydro-7H-pyrazolo(4,3-d)pyrimidin-7-one] | 46.6 | 300.0 ± 100.0 | 3.0 ± 1.0 | > 1000
CCCc1nn(CC)c2c(=O)[nH]c(-c3cc(S(=O)(=O)NCc4ccccc4)ccc3OCC)nc12 [Example 24, 5-[2-ethoxy-5-(benzylamidosulfonyl)phenyl]-1-ethyl-3-propyl-1,6-dihydro-7H-pyrazolo(4,3-d)pyrimidin-7-one] | 86 | 233.3 ± 230.9 | 2.7 ± 2.9 | > 1000
CCCc1nn(C)c2c(=O)[nH]c(-c3cc(S(=O)(=O)Nc4ccc(C)cc4)ccc3OCC)nc12 [Example 27] | – | 66.7 ± 66.7 | 2.7 ± 1.2 | –
CCCc1nn(C)c2c(=O)[nH]c(-c3cc(S(=O)(=O)NCc4ccccn4)ccc3OCC)nc12 [Example 50] | – | 44.3 ± 38.5 | 1.0 ± 0.0 | –
CCOc1ccc(S(=O)(=O)Nc2ccc(C(C)(C)C)cc2)cc1-c1nc2c(CC(C)C)nn(C)c2c(=O)[nH]1 [Example 30] | – | 133.3 ± 57.7 | 2.3 ± 0.6 | –
CCCc1nn(C)c2c(=O)[nH]c(-c3cc(S(=O)(=O)Nc4ccccc4)ccc3OCC)nc12 [Example 25] | – | 44.4 ± 38.5 | 2.0 ± 0.0 | –
CCCc1nn(C)c2c(=O)[nH]c(-c3cc(S(=O)(=O)NCC4CCCN4C)ccc3OCC)nc12 (centres unmarked) [Example 55] | 103 | 350.0 ± 173.2 | 3.8 ± 1.5 | –
CCOc1ccc(S(=O)(=O)NC(C)C)cc1-c1nc2c(CC(C)C)nn(C)c2c(=O)[nH]1 [Example 4] | – | 133.3 ± 57.7 | 2.3 ± 1.2 | –
CCCc1nn(C)c2c(=O)[nH]c(-c3cc(S(=O)(=O)NC4CCC4)ccc3OCC)nc12 [Example 17] | – | 66.7 ± 66.7 | 1.0 ± 1.0 | –
